The target of data set [1] is T1, human recombinant histamine H3R (Homo sapiens, UniProt Q9Y5N1).
T1 construct: expressed in transfected cells
Kind of data set: hH3R radioligand binding ([3H]Nα-methylhistamine depletion assay). The following applies: read-out: hH3R Ki [nM] x̄ [CI 95%]; mean [CI 95%]; HEK-293 cells.

A further data set deals with T2, sigma-2 receptor (σ2R) (Rattus norvegicus, UniProt Q5U3Y7).
T2 construct: The thawed membrane preparation of rat liver was incubated; from tissue; host or cells: Sprague-Dawley rat liver membranes
T2 sequence (Q5U3Y7 1-176): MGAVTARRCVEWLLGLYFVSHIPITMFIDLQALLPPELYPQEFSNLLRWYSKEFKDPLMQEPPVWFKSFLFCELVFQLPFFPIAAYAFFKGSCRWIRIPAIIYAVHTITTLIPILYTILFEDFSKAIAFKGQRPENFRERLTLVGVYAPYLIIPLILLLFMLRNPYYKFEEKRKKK
Kind of data set: σ2R radioligand binding ([3H]DTG). The following applies: read-out: σ2R Ki [nM] x̄ [CI 95%]; mean [CI 95%].

In data set [2] the target is T3, human histamine H1 receptor (hH1R) (Homo sapiens, UniProt P35367).
T3 construct: SP (signal peptide) (N); FLAG (N); expressed in transfected cells
T3 sequence (P35367 whole entry): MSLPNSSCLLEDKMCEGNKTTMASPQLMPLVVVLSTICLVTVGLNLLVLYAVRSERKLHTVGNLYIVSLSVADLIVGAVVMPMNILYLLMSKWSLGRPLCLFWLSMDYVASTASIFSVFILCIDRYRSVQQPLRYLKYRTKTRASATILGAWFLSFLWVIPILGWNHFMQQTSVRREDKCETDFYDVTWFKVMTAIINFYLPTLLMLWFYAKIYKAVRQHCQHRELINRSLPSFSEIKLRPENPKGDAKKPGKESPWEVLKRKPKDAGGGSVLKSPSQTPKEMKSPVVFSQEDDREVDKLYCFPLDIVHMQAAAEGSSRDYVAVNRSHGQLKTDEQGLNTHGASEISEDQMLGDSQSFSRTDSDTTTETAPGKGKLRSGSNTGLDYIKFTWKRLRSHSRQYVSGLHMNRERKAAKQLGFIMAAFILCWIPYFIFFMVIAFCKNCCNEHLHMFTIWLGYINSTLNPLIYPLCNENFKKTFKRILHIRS
Kind of data set: hH1R radioligand binding ([3H]mepyramine). The note with it: read-out: hH1R (Ki [nM] x̅ [CI 95%]); HEK293T cells; n = 3, triplicate. As to the method: (§1) To check the selectivity profile of our lead structures, radioligand binding studies at other histamine receptor subtypes were carried out. […] Obtained results clearly indicate the high selectivity of the tested derivatives toward human H3R (Table 3).
(§2) Compounds (as oxalate salts) were tested in H3R in vitro binding studies using the methods described previously.[21]−[23] […] Radioligand binding experiments at the H1R, H2R, and H4R were performed as previously described in Rosier et al.[65] and Bartole et al.[66] […] Data represent mean values ± CI from three independent experiments, each performed in triplicate. The normalized competition binding curves were then fitted with a four-parameter logistic fit yielding IC50 values using the Prism 8.4.3 software (GraphPad, San Diego, CA). The Ki values were estimated from the Cheng–Prusoff equation.[69]

Data set [3] deals with T4, human histamine H2 receptor (hH2R) (Homo sapiens, UniProt P25021).
T4 construct: SP (signal peptide) (N); FLAG (N); expressed in transfected cells
T4 sequence (P25021 whole entry): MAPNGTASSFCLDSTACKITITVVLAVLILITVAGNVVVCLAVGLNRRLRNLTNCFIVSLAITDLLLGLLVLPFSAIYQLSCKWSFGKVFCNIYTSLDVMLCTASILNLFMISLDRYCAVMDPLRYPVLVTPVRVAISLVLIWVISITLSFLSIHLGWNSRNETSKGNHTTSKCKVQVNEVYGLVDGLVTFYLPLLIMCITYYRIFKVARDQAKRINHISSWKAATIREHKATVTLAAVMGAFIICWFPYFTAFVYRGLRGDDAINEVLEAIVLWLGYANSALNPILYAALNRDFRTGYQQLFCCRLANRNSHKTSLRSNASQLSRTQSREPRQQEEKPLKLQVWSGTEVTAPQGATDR
Kind of data set: hH2R radioligand binding ([3H]UR-DE257). The note with it: HEK293T cells; n = 3, triplicate. As to the method: as §1, §2

For data set [4], the target named is T5, human histamine H4 receptor (hH4R) (Homo sapiens, UniProt Q9H3N8).
T5 construct: SP (signal peptide) (N); FLAG (N); expressed in transfected cells
T5 sequence (Q9H3N8 whole entry): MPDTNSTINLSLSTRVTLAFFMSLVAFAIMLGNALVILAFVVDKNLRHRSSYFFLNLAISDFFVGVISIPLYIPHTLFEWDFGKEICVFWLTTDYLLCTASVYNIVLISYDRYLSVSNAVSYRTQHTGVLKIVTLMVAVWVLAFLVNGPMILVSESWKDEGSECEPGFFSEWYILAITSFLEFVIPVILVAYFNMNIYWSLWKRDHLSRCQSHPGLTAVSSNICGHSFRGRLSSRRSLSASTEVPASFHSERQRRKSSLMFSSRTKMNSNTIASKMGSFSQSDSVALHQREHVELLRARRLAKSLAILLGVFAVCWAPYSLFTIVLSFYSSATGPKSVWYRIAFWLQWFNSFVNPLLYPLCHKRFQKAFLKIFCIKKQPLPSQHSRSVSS
Kind of data set: hH4R radioligand binding ([3H]UR-PI294). The note with it: read-out: hH4R (Ki [nM] x̅ [CI 95%]); HEK293T cells; n = 3, triplicate. How it is done:
as §1, §2

A short description of data set [5]: parallel artificial membrane permeability assay (PAMPA). The data set is classed as in vitro ADME. The note with it: 100 μM in PBS pH 7.4, RT, read-out: Pe (permeability coefficient). A general note: The PAMPA barrier holds no transporters, so it reflects passive diffusion.
Data set [6] has as its system mice. The experiment in a line: formalin test. The data set is classed as in vivo. The following applies: Mus musculus, ip. An excerpt:
The formalin test is one of the most useful screening models for testing potentially clinically relevant antinociceptive molecules because of its ease of administration, standardization, and validation with reference drugs.[50] The subcutaneous injection of formalin results in a focal injury that stimulates and then damages sensory endings. Two distinct phases of nociceptive response are associated with the immediate activation of nociceptors and sensitization of spinal reflex circuits during phase I and II responses, respectively.[51]
The procedure used was essentially the same as that described previously.[86],[87] Briefly, 20 μL of 1.5% formalin solution was injected intraplantarly (i.pl.) into the mice right hind paw using a 26-gauge needle. […] The total time (in seconds) spent on licking the injected paw during periods of 0–5 min (early phase, neurogenic) and 15–30 min (late phase, inflammatory) was measured and was considered as an indicator of nociceptive behavior. Before formalin injection, different groups of mice were treated i.p. with the vehicle (10 mL/kg, negative control) and the varying doses of 12 (5, 10, 15, and 30 mg/kg).

Data set [7] deals with mice. The experiment in a line: loperamide-induced antinociception (paw pressure, struggle response latency). The data set is classed as in vivo, Female CD1 mice.
The test system of another data set is CCI-exposed mice. Kind of data set: chronic constriction injury (CCI) of the sciatic nerve, von Frey test. The data set is classed as in vivo, male albino Swiss CD-1 mice. As to the method:
Behavioral assessment of 12 was performed 14 days after the sciatic nerve injury. Mice were randomly assigned to four treatment groups: vehicle-treated (i.p.) and 12-treated (5, 10, and 15 mg/kg, i.p.). Baseline measurements (basal) for all tests were performed before compound injections, and the results are presented as percentages of the maximal possible effect (% MPE). We observed a significant effect of the tested compound in the von Frey test at all tested time points (30 min: F(3, 26) = 12.38, p < 0,0001; 90 min: F(3, 26) = 12.65, p < 0.0001; 180 min: F(3, 26) = 6.464, p = 0.0020). […] We also observed a significant effect of treatment on the contralateral paw 90 min after injection (F(3, 26) = 5.741, p = 0.0037).
The model of chronic constriction injury (CCI) to the sciatic nerve was established according to Bennett and Xie.[94] The surgical method was performed under isoflurate anesthesia (2% isoflurane in 100% oxygen with a flow of 1.5 L/min).[95] Below the right hipbone, a small incision was performed, and three ligatures (4/0 silk) around the sciatic nerve were made (with 1 mm spacing) until a brief twitch in the respective hind limb was observed. All mice that underwent the CCI procedure developed hypersensitivity to mechanical and thermal stimuli. Behavioral tests were performed at day 14 after injury. Compound 12 was dissolved in 10% DMSO/10% (2-hydroxypropyl)-β-cyclodextrin/water and administered i.p. at doses 5, 10, and 15 mg/kg (injection volume 10 mL/kg of body weight). The control group received the vehicle (10% DMSO/10% (2-hydroxypropyl)-β-cyclodextrin/water).
Behavioral experiments were performed between 8:00 a.m. and 2:00 p.m. Across the experiments, we compared vehicle-treated mice with 12-treated animals. Experiments were performed 30, 90, and 180 min (von Frey test); 35, 95, and 185 min (cold plate test); and 40, 100, and 190 min (tail flick test) after the vehicle or 12 administration.
The von Frey test was used to measure mechanical hypersensitivity as described in a previous publication.[95] The animals were placed in cages with a wire net floor. The reaction (paw withdrawal, shaking, or licking) of the ipsilateral (Figure 15) and contralateral (Figure S33) paw of CCI-exposed mice to the mechanical stimulator (calibrated nylon monofilaments (0.6–6 g; Stoelting)) in serial increments was observed.

The Ki is the equilibrium dissociation constant of an inhibitor or competing ligand from its target. In general, ED50 refers to the dose at which the effect has come halfway, by size or by number of responders.

Structures are written as SMILES. Counter-ions that a name gives are not always drawn. Like-named read-outs stand apart in the source and are kept apart here.

T1 sequence (Q9Y5N1 whole entry): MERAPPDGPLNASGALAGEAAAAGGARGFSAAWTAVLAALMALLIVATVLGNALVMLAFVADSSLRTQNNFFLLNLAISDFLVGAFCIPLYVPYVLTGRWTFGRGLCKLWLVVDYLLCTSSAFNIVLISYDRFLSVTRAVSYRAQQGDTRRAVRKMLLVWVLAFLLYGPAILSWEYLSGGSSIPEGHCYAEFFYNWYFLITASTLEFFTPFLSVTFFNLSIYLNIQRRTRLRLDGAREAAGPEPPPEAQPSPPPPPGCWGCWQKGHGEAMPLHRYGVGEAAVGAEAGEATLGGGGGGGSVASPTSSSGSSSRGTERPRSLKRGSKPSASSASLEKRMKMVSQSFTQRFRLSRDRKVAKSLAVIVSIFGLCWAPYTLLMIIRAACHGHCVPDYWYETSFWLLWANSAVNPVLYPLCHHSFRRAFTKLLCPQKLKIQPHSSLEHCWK

As to `N#Cc1ccc(-c2ccc(OCCCN3CCC(c4ccncc4)CC3)cc2)cc1` [Compound 12, 4′-(3-(4-(Pyridin-4-yl)piperidin-1-yl)propoxy)-[1,1′-biphenyl]-4-carbonitrile Oxalate], the Ki is 7.7 nM in data set [1]; 10 nM at sigma-2 receptor (σ2R); 653 nM in data set [2]; over 10000 nM in data set [3]; over 10000 nM in data set [4]. Besides, the Papp at 5 h, 100 µM in data set [5] came out at 12 ×10⁻⁶ cm/s. The ED50 with mice [6] (0–5 min after formalin, read-out: ED50, formalin test phase I (acute phase)) came out at 6.17 mg/kg; with mice [6] (15–30 min after formalin, read-out: ED50, formalin test phase II (late phase)) it was 12.3 mg/kg. In the data set with mice [7] (concluded from PRE-084 reversal), the “in vivo σ1 receptor functional profile” value was “σ1 receptor antagonists”. Moreover, the “effect on loperamide-induced antinociception” value in the data set with mice [7] (i.pl. with loperamide 4 mg/kg s.c., injected paw) was “dose-dependently (12.5–25 μg) increased the antinociceptive effect of loperamide at the injected paw”. In addition, in the data set with mice [7] (i.pl., S1RA 100 μg, 12 25 μg, 450 g pressure), the “effect alone on struggle response latency” value is listed as “did not have any effect per se”. Besides, the “effect on contralateral paw, von Frey test” value is “reduced the withdrawal threshold 30 and 180 min after injection, although this effect was not statistically significant” with CCI-exposed mice (15 mg/kg, 30 and 180 min); “significant effect (p = 0.0056)” in the data set with CCI-exposed mice (15 mg/kg, 90 min); “no effects of compound 12 (for doses 5 and 10 mg/kg) on tactile allodynia” with CCI-exposed mice (5 and 10 mg/kg, all time points). Besides, the “analgesic effect, von Frey test, ipsilateral paw” value was “only at a dose of 10 mg/kg increased the withdrawal thresholds” in the data set with CCI-exposed mice (90 and 180 min after i.p. injection); “significant analgesic effects 30 min after injection of 5 (p < 0.0001) and 10 mg/kg (p = 0.0201)” in the data set on CCI-exposed mice (30 min after i.p. injection, 5, 10, 15 mg/kg, day 14 after CCI).
